Key:
[1] = test system: Wnt-responsive promoter driving firefly luciferase in SW480 cells; assay: Wnt reporter (SP5 promoter-luciferase) screening assay in SW480 cells; format: cell-based; conditions: Homo sapiens, 24-40 h, top concentration ten micromolar
Description: Another screening assay for Wnt activity is described as follows. Reporter cell lines can be generated by stably transducing cells of cancer cell lines (e.g., colon cancer) with a lentiviral construct that include a Wnt-responsive promoter driving expression of the firefly luciferase gene.
Lentiviral constructs can be made in which the SP5 promoter, a promoter having eight TCF/LEF binding sites derived from the SP5 promoter, is linked upstream of the firefly luciferase gene. The lentiviral constructs can also include a hygromycin resistance gene as a selectable marker. The SP5 promoter construct can be used to transduce SW480 cells, a colon cancer cell line having a mutated APC gene that generates a truncated APC protein, leading to de-regulated accumulation of β-catenin.
Cultured SW480 cells bearing a reporter construct can be distributed at approximately 10,000 cells per well into 96 well or 384 well plates. Compounds from a small molecule compound library can then be added to the wells in half-log dilutions using a ten micromolar top concentration. A series of control wells for each cell type receive only buffer and compound solvent. Twenty-four to forty hours after the addition of compound, reporter activity for luciferase can be assayed, for example, by addition of the BrightGlo luminescence reagent (Promega) and the Victor3 plate reader (Perkin Elmer). Readings can be normalized to DMSO only treated cells, and normalized activities can then be used in the EC50 calculations.

[2] = test system: primary human mesenchymal stem cells (hMSCs); assay: Tenocyte differentiation screening in hMSCs (SCXA-positive cells, 4 days); format: cell-based; conditions: 96 h, fold change over DMSO
Description: Representative compounds were screened using primary human mesenchymal stem cells (hMSCs) to determine their ability to induce tenocyte differentiation (process by which tendon is developed).
Primary human mesenchymal stem cells (hMSCs) were purchased from Lonza (Walkersville, Md.) and expanded in Mesenchymal Stem Cell Growth Media (Lonza). Cells between passage 3 and 6 were used for the experiments.
Cells were fixed using 4% formaldehyde (Electron Microscopy Sciences), and stained with anti-Sclerasis (anti-SCXA) antibodies (Abgent, San Diego, Calif.) [Webb S., et. al., Retinoic acid receptor signaling preserves tendon stem cell characteristics and prevents spontaneous differentiation in vitro, Stem Cell Research & Therapy 2016, 7:45] overnight at 4° C. […] Number of cells positive for SCXA in each well was quantified using the Celllnsight CX5. Data was normalized to the average of 12 DMSO treated wells on the same plate using Dotmatics Studies module. The normalized averages (fold change over DMSO) of 3 replicate wells for each compound concentration were calculated. Due to solubility limitations of some of the compounds, values for higher doses were manually corrected and curve fitting and EC50 determinations were performed using Dotmatics Studies.
EC50 for each compound is reported.

EC50 [1] [nM] | EC50 [2] [nM] | SMILES
107 | > 100000 | O=C(Nc1ccc(Oc2cccc(F)c2)nc1)c1n[nH]c2ccc(-c3cccnc3)cc12 [compound 19, N-(6-(3-Fluorophenoxy)pyridin-3-yl)-5-(pyridin-3-yl)-1H-indazole-3-carboxamide]
175 | > 100000 | CN(C)C(=O)Nc1cncc(-c2ccc3[nH]nc(C(=O)Nc4cccnc4)c3c2)c1 [compound 1, 5-(5-(3,3-dimethylureido)pyridin-3-yl)-N-(pyridin-3-yl)-1H-indazole-3-carboxamide]
71 | > 100000 | O=C(Nc1cnccc1NC(=O)C1CC1)c1n[nH]c2ccc(-c3cccnc3)cc12 [compound 58, N-(4-(Cyclopropanecarboxamido)pyridin-3-yl)-5-(pyridin-3-yl)-1H-indazole-3-carboxamide]
26 | > 100000 | O=C(Nc1cccnc1)c1n[nH]c2ccc(-c3ccc(N4CCCC4)nc3)cc12 [compound 51, N-(Pyridin-3-yl)-5-(6-(pyrrolidin-1-yl)pyridin-3-yl)-1H-indazole-3-carboxamide]
27 | 6440 | CS(=O)(=O)c1ccc(NC(=O)c2n[nH]c3ccc(-c4cncc(CN5CCCCC5)c4)cc23)cn1 [compound 185, N-(6-(Methylsulfonyl)pyridin-3-yl)-5-(5-(piperidin-1-ylmethyl)pyridin-3-yl)-1H-indazole-3-carboxamide]
120 | 2840 | CN1CCN(c2ccc(NC(=O)c3n[nH]c4ccc(-c5cncc(NC(=O)C6CC6)c5)cc34)cn2)CC1 [compound 38, 5-(5-(Cyclopropanecarboxamido)pyridin-3-yl)-N-(6-(4-methylpiperazin-1-yl)pyridin-3-yl)-1H-indazole-3-carboxamide]
1250 | > 100000 | O=C(Nc1cccnc1)c1n[nH]c2ccc(-c3cncc(NC(=O)N4CCOCC4)c3)cc12 [compound 32, N-(5-(3-(Pyridin-3-ylcarbamoyl)-1H-indazol-5-yl)pyridin-3-yl) morpholine-4-carboxamide]
60 | > 100000 | Cc1cc(NC(=O)c2n[nH]c3ccc(-c4cncc(CN5CCCCC5)c4)cc23)cnc1N1CCCC1 [compound 172, N-(5-Methyl-6-(pyrrolidin-1-yl)pyridin-3-yl)-5-(5-(piperidin-1-ylmethyl)pyridin-3-yl)-1H-indazole-3-carboxamide]
≥ 10000 | > 100000 | O=C(Nc1cccc(-c2cccc(F)c2)c1)c1n[nH]c2ccc(-c3cccnc3)cc12 [compound 5, N-(3′-Fluorobiphenyl-3-yl)-5-(pyridin-3-yl)-1H-indazole-3-carboxamide]
71 | > 100000 | O=C(Nc1cnccc1C(F)(F)F)c1n[nH]c2ccc(-c3cncc(CN4CCCCC4)c3)cc12 [compound 47, 5-(5-(Piperidin-1-ylmethyl)pyridin-3-yl)-N-(4-(trifluoromethyl)pyridin-3-yl)-1H-indazole-3-carboxamide]
130 | 4980 | O=C(Nc1ccc(CN2CCCC2)nc1)c1n[nH]c2ccc(-c3cccnc3)cc12 [compound 8, 5-(Pyridin-3-yl)-N-(6-(pyrrolidin-1-ylmethyl)pyridin-3-yl)-1H-indazole-3-carboxamide]
65 | > 100000 | O=C(Nc1ccc(C(F)(F)F)nc1)c1n[nH]c2ccc(-c3cncc(NC(=O)C4CC4)c3)cc12 [compound 39, 5-(5-(Cyclopropanecarboxamido)pyridin-3-yl)-N-(6-(trifluoromethyl)pyridin-3-yl)-1H-indazole-3-carboxamide]

Further lines, the compound ahead of its results:

SMILES | EC50 [1] [nM] | EC50 [2] [nM]
O=C(Nc1ccccc1)c1n[nH]c2ccc(-c3cncc(CN4CCCCC4)c3)cc12 [compound 82, N-Phenyl-5-(5-(piperidin-1-ylmethyl)pyridin-3-yl)-1H-indazole-3-carboxamide] | 143 to 188 | > 100000
N#Cc1ccc(NC(=O)c2n[nH]c3ccc(-c4cncc(CN5CCCC5)c4)cc23)cn1 [compound 52, N-(6-Cyanopyridin-3-yl)-5-(5-(pyrrolidin-1-ylmethyl)pyridin-3-yl)-1H-indazole-3-carboxamide] | 57 | > 100000
CN(C)Cc1cncc(-c2ccc3[nH]nc(C(=O)Nc4ccc(C(F)(F)F)nc4)c3c2)c1 [compound 26, 5-(5-((Dimethylamino)methyl)pyridin-3-yl)-N-(6-(trifluoromethyl)pyridin-3-yl)-1H-indazole-3-carboxamide] | 210 | > 100000
O=C(Nc1ccnnc1)c1n[nH]c2ccc(-c3cccnc3)cc12 [compound 14, N-(Pyridazin-4-yl)-5-(pyridin-3-yl)-1H-indazole-3-carboxamide] | 106 | 50400
CN(C)Cc1cncc(-c2ccc3[nH]nc(C(=O)Nc4cccnc4)c3c2)c1 [compound 40, 5-(5-((Dimethylamino)methyl)pyridin-3-yl)-N-(pyridin-3-yl)-1H-indazole-3-carboxamide] | 65 | 5170
Cc1cc(NC(=O)c2n[nH]c3ccc(-c4cncc(CN5CCCCC5)c4)cc23)cnc1N1CCC1 [compound 173, N-(6-(Azetidin-1-yl)-5-methylpyridin-3-yl)-5-(5-(piperidin-1-ylmethyl)pyridin-3-yl)-1H-indazole-3-carboxamide] | 36 | > 100000
CN1CCN(C(=O)c2n[nH]c3ccc(-c4cncc(CN5CCCCC5)c4)cc23)CC1 [compound 83, (4-Methylpiperazin-1-yl)(5-(5-(piperidin-1-ylmethyl)pyridin-3-yl)-1H-indazol-3-yl)methanone] | 2500 to 3400 | > 100000
CN1CCN(Cc2cc(F)cc(-c3ccc4[nH]nc(C(=O)Nc5cnccc5C(F)(F)F)c4c3)c2)CC1 [compound 60, 5-(3-Fluoro-5-((4-methylpiperazin-1-yl)methyl)phenyl)-N-(4-(trifluoromethyl)pyridin-3-yl)-1H-indazole-3-carboxamide] | ≥ 10000 | > 100000
O=C(NC1CCOCC1)c1n[nH]c2ccc(-c3cncc(CN4CCCCC4)c3)cc12 [compound 163, 5-(5-(Piperidin-1-ylmethyl)pyridin-3-yl)-N-(tetrahydro-2H-pyran-4-yl)-1H-indazole-3-carboxamide] | 15400 | 5090
O=C(Nc1ccc2c(c1)OCO2)c1n[nH]c2ccc(-c3cncc(CN4CCCCC4)c3)cc12 [compound 78, N-(Benzo[d][1,3]dioxol-5-yl)-5-(5-(piperidin-1-ylmethyl)pyridin-3-yl)-1H-indazole-3-carboxamide] | 239 | > 100000
O=C(Nc1ccc(N2CCOCC2)nc1)c1n[nH]c2ccc(-c3cncc(CN4CCCCC4)c3)cc12 [compound 69, N-(6-Morpholinopyridin-3-yl)-5-(5-(piperidin-1-ylmethyl)pyridin-3-yl)-1H-indazole-3-carboxamide] | 50 | 12500
O=C(Nc1cncc(-c2cccc(F)c2)c1)c1n[nH]c2ccc(-c3cccnc3)cc12 [compound 9, N-(5-(3-Fluorophenyl)pyridin-3-yl)-5-(pyridin-3-yl)-1H-indazole-3-carboxamide] | ≥ 10000 | > 100000
O=C(Nc1ccc(N2CCCCC2)nc1)c1n[nH]c2ccc(-c3cncc(CN4CCCCC4)c3)cc12 [compound 126, N-(6-(Piperidin-1-yl)pyridin-3-yl)-5-(5-(piperidin-1-ylmethyl)pyridin-3-yl)-1H-indazole-3-carboxamide] | 22 | 5540
O=C(Nc1ccc(Oc2ccccc2F)nc1)c1n[nH]c2ccc(-c3cccnc3)cc12 [compound 18, N-(6-(2-fluorophenoxy)pyridin-3-yl)-5-(pyridin-3-yl)-1H-indazole-3-carboxamide] | 122 | 5380
CN(C)Cc1cncc(NC(=O)c2n[nH]c3ccc(-c4cccnc4)cc23)c1 [compound 7, N-(5-((Dimethylamino)methyl)pyridin-3-yl)-5-(pyridin-3-yl)-1H-indazole-3-carboxamide] | 110 | 6940
CN1CCN(Cc2cncc(-c3ccc4[nH]nc(C(=O)Nc5cccnc5)c4c3)c2)CC1 [compound 61, 5-(5-((4-Methylpiperazin-1-yl)methyl)pyridin-3-yl)-N-(pyridin-3-yl)-1H-indazole-3-carboxamide] | 239 | 12300
O=C(Nc1ccc(-c2ccccc2)nc1)c1n[nH]c2ccc(-c3cncc(CN4CCCCC4)c3)cc12 [compound 65, N-(6-Phenylpyridin-3-yl)-5-(5-(piperidin-1-ylmethyl)pyridin-3-yl)-1H-indazole-3-carboxamide] | 101 | > 100000

From patent US10806726B2, “Methods of using indazole-3-carb oxamides and their use as Wnt/B-catenin signaling pathway inhibitors” (Samumed, LLC, priority 2016, dated 2020)
